Test results as given in ChEMBL document CHEMBL3132769, “Fragment growing to retain or alter the selectivity of anchored kinase hinge-binding fragments” (Medchemcomm, 2014).

How the values were obtained:
[1] = target: Calcium/calmodulin-dependent protein kinase type II subunit beta (Homo sapiens) (UniProt Q13554); assay: Inhibition of human CAMK2 beta catalytic domain expressed in baculovirus assessed as substrate phosphorylation using fluorescence-labelled peptides as substrate at 9 uM after 90 mins by microfluidic peptide phosphorylation assay
[2] = tested on: Tyrosine-protein kinase ABL1 (Homo sapiens), P00519 [T315I]; assay: Inhibition of human truncated ABL T315I mutant expressed in baculovirus assessed as substrate phosphorylation using fluorescence-labelled peptides as substrate at 9 uM after 90 mins by microfluidic peptide phosphorylation assay
[3] = target: Insulin-like growth factor 1 receptor (Homo sapiens) (UniProt P08069); assay: Inhibition of human IGF1R catalytic domain expressed in baculovirus assessed as substrate phosphorylation using fluorescence-labelled peptides as substrate at 9 uM after 90 mins by microfluidic peptide phosphorylation assay
[4] = target: Vascular endothelial growth factor receptor 2 (Homo sapiens) (UniProt P35968); assay: Inhibition of human KDR cytoplasmic domain expressed in baculovirus assessed as substrate phosphorylation using fluorescence-labelled peptides as substrate at 9 uM after 90 mins by microfluidic peptide phosphorylation assay
[5] = target: MAP kinase p38 (Homo sapiens) (UniProt O15264+Q15759+Q16539+P53778); assay: Inhibition of human full length p38 beta2 expressed in Escherichia coli cell assessed as substrate phosphorylation using fluorescence-labelled peptides as substrate at 95 uM after 90 mins by microfluidic peptide phosphorylation assay
[6] = target: Tyrosine-protein kinase Fyn (Homo sapiens) (UniProt P06241); assay: Inhibition of human full length FYN expressed in baculovirus assessed as substrate phosphorylation using fluorescence-labelled peptides as substrate at 0.06 uM after 90 mins by microfluidic peptide phosphorylation assay
[7] = target: T1, Serine/threonine-protein kinase DCLK2 (Homo sapiens) (UniProt Q8N568); assay: Inhibition of human full length DCAMKL2 expressed in baculovirus assessed as substrate phosphorylation using fluorescence-labelled peptides as substrate at 0.1 uM after 90 mins by microfluidic peptide phosphorylation assay
T1 sequence (whole entry): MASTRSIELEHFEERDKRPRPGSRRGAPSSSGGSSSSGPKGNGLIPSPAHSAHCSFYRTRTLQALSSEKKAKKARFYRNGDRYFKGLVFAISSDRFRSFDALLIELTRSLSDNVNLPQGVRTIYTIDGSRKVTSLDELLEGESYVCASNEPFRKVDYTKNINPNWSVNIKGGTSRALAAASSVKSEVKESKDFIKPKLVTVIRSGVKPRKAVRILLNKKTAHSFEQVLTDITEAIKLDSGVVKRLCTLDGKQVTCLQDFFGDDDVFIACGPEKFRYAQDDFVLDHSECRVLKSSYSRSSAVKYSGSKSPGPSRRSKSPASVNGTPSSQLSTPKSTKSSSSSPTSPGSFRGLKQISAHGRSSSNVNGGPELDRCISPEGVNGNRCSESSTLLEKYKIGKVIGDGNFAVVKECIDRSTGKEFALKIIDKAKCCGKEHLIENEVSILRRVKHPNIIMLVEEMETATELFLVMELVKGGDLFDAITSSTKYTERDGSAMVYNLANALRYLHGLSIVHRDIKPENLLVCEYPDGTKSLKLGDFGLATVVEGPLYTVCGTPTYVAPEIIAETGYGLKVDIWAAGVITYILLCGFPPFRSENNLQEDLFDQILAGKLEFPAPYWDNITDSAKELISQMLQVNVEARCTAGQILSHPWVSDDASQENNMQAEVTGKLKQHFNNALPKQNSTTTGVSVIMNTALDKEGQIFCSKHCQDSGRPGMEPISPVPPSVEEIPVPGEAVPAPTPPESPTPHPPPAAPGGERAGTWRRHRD

[8] = target: Serine/threonine-protein kinase PAK 2 (Homo sapiens) (UniProt Q13177); conditions: 0.1 uM
Description: Inhibition of human truncated PAK2 expressed in Escherichia coli cell assessed as substrate phosphorylation using fluorescence-labelled peptides as substrate at 0.1 uM after 90 mins by microfluidic peptide phosphorylation assay

[9] = target: Receptor-type tyrosine-protein kinase FLT3 (Homo sapiens) (UniProt P36888); assay: Inhibition of human FLT3 catalytic domain expressed in baculovirus assessed as substrate phosphorylation using fluorescence-labelled peptides as substrate at […] after 90 mins by microfluidic peptide phosphorylation assay
[10] = target: Vascular endothelial growth factor receptor 2 (Homo sapiens) (UniProt P35968); assay: Inhibition of human KDR cytoplasmic domain expressed in baculovirus assessed as substrate phosphorylation using fluorescence-labelled peptides as substrate at 420 uM after 90 mins by microfluidic peptide phosphorylation assay
[11] = target: Rho-associated protein kinase 2 (Homo sapiens) (UniProt O75116); assay: Inhibition of human ROCK2 catalytic domain expressed in baculovirus assessed as substrate phosphorylation using fluorescence-labelled peptides as substrate at 70 uM after 90 mins by microfluidic peptide phosphorylation assay
[12] = tested on: Tyrosine-protein kinase ABL1 (Homo sapiens), P00519 [H396P]; assay: Inhibition of human truncated ABL H396P mutant expressed in baculovirus assessed as substrate phosphorylation using fluorescence-labelled peptides as substrate at 70 uM after 90 mins by microfluidic peptide phosphorylation assay
[13] = target: Protein kinase C gamma type (Homo sapiens) (UniProt P05129); assay: Inhibition of human truncated PKC gamma expressed in baculovirus assessed as substrate phosphorylation using fluorescence-labelled peptides as substrate at 0.2 uM after 90 mins by microfluidic peptide phosphorylation assay
[14] = target: Calcium/calmodulin-dependent protein kinase type II subunit beta (Homo sapiens) (UniProt Q13554); assay: Inhibition of human CAMK2 beta catalytic domain expressed in baculovirus assessed as substrate phosphorylation using fluorescence-labelled peptides as substrate at 2 uM after 90 mins by microfluidic peptide phosphorylation assay
[15] = target: MAP kinase-activated protein kinase 3 (Homo sapiens) (UniProt Q16644); assay: Inhibition of human full length MAPKAPK3 expressed in Escherichia coli cell assessed as substrate phosphorylation using fluorescence-labelled peptides as substrate at 8 uM after 90 mins by microfluidic peptide phosphorylation assay
[16] = target: T2, Testis-specific serine/threonine-protein kinase 2 (Homo sapiens) (UniProt Q96PF2); assay: Inhibition of human full length TSSK2 expressed in baculovirus assessed as substrate phosphorylation using fluorescence-labelled peptides as substrate at 8 uM after 90 mins by microfluidic peptide phosphorylation assay
T2 sequence (whole entry): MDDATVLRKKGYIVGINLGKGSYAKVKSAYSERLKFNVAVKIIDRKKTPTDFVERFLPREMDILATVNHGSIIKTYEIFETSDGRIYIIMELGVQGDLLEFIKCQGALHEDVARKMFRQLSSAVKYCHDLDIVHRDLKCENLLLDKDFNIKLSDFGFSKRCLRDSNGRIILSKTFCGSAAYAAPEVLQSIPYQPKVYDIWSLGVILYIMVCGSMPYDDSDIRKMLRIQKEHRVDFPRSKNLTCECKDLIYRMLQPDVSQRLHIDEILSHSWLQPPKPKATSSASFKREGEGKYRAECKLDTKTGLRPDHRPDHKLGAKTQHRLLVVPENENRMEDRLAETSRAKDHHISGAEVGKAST

[17] = target: Vascular endothelial growth factor receptor 2 (Homo sapiens) (UniProt P35968); assay: Inhibition of human KDR cytoplasmic domain expressed in baculovirus assessed as substrate phosphorylation using fluorescence-labelled peptides as substrate at 1000 uM after 90 mins by microfluidic peptide phosphorylation assay
[18] = target: Insulin receptor (Homo sapiens) (UniProt P06213); assay: Inhibition of human INSR catalytic domain expressed in baculovirus assessed as substrate phosphorylation using fluorescence-labelled peptides as substrate at 1000 uM after 90 mins by microfluidic peptide phosphorylation assay

Sequence of Vascular endothelial growth factor receptor 2 (Homo sapiens) (P35968 whole entry, the tested form may be a part): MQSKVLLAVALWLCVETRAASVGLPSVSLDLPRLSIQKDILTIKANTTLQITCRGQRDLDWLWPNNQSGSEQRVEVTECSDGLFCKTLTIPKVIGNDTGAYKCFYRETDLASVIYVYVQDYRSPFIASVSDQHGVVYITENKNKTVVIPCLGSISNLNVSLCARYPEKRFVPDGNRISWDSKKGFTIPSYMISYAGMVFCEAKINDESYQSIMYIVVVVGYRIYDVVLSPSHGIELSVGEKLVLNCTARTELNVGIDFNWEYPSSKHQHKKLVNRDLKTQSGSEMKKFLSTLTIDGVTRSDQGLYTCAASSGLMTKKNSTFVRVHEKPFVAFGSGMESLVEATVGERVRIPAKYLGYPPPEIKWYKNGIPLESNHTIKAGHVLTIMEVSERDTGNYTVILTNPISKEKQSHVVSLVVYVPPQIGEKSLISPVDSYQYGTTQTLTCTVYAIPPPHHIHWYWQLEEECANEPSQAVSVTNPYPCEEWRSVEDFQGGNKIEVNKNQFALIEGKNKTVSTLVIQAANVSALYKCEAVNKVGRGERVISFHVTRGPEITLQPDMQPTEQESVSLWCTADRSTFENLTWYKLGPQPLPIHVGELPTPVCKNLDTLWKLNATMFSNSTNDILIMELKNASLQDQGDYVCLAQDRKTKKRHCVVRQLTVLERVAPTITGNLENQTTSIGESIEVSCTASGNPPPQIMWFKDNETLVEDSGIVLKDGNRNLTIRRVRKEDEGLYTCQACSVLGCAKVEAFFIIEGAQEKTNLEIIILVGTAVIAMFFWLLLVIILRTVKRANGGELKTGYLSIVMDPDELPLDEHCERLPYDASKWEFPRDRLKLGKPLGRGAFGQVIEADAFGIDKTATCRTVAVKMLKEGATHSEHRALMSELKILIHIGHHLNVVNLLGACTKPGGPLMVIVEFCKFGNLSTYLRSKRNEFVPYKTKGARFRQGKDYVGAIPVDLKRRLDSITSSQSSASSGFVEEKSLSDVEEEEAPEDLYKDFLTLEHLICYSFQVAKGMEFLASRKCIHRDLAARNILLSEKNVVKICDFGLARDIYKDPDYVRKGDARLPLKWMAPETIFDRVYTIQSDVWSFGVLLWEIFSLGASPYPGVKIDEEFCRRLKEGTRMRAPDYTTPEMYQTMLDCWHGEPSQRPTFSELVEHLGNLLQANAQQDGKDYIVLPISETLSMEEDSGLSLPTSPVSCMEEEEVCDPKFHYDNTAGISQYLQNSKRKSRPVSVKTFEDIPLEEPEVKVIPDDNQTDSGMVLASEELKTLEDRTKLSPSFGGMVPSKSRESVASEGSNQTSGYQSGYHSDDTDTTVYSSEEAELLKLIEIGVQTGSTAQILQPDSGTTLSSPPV
Sequence of Calcium/calmodulin-dependent protein kinase type II subunit beta (Homo sapiens) (Q13554 whole entry, the tested form may be a part): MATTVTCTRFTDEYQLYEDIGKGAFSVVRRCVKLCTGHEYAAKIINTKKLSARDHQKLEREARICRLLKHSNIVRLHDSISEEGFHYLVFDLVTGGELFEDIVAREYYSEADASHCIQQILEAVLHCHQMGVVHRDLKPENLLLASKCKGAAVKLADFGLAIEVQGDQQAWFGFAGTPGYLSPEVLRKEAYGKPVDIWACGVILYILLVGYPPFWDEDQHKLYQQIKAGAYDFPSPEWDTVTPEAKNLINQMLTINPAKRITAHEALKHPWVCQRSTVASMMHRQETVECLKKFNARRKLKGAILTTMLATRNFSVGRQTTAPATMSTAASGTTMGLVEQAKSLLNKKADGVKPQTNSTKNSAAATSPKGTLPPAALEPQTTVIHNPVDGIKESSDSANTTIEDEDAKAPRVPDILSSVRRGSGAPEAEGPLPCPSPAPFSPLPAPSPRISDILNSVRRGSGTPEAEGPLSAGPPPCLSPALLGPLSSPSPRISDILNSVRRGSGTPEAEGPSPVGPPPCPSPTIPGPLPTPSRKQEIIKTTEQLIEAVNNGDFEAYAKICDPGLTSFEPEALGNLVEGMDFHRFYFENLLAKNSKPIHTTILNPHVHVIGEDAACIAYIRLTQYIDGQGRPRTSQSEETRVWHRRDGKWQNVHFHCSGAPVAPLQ
Sequence of Receptor-type tyrosine-protein kinase FLT3 (Homo sapiens) (P36888 whole entry, the tested form may be a part): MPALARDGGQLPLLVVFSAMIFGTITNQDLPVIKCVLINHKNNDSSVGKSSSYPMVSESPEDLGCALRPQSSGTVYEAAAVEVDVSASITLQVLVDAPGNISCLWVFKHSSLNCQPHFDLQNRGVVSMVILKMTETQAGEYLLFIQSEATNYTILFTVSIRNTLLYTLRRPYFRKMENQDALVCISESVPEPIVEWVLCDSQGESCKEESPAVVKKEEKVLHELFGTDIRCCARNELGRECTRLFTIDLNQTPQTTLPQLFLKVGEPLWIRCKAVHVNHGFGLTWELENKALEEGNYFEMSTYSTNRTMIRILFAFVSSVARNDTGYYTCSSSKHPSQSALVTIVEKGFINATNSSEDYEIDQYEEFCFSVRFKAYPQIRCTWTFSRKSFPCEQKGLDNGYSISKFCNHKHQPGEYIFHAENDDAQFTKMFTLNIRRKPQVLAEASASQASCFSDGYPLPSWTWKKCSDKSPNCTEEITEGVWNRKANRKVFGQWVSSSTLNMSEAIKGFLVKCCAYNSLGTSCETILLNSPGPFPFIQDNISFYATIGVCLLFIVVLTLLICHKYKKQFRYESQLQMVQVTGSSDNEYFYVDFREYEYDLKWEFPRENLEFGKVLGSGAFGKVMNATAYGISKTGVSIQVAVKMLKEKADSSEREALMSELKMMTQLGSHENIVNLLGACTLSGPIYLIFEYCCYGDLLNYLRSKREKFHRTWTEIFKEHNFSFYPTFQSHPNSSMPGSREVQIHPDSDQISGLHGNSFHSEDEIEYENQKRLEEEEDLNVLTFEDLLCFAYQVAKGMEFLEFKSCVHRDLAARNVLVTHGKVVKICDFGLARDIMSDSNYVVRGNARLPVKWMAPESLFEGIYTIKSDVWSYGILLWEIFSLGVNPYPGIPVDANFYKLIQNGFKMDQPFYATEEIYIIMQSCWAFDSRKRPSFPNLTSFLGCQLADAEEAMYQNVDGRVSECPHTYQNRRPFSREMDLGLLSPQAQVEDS
Sequence of Rho-associated protein kinase 2 (Homo sapiens) (O75116 whole entry, looked up, the tested form may be a part): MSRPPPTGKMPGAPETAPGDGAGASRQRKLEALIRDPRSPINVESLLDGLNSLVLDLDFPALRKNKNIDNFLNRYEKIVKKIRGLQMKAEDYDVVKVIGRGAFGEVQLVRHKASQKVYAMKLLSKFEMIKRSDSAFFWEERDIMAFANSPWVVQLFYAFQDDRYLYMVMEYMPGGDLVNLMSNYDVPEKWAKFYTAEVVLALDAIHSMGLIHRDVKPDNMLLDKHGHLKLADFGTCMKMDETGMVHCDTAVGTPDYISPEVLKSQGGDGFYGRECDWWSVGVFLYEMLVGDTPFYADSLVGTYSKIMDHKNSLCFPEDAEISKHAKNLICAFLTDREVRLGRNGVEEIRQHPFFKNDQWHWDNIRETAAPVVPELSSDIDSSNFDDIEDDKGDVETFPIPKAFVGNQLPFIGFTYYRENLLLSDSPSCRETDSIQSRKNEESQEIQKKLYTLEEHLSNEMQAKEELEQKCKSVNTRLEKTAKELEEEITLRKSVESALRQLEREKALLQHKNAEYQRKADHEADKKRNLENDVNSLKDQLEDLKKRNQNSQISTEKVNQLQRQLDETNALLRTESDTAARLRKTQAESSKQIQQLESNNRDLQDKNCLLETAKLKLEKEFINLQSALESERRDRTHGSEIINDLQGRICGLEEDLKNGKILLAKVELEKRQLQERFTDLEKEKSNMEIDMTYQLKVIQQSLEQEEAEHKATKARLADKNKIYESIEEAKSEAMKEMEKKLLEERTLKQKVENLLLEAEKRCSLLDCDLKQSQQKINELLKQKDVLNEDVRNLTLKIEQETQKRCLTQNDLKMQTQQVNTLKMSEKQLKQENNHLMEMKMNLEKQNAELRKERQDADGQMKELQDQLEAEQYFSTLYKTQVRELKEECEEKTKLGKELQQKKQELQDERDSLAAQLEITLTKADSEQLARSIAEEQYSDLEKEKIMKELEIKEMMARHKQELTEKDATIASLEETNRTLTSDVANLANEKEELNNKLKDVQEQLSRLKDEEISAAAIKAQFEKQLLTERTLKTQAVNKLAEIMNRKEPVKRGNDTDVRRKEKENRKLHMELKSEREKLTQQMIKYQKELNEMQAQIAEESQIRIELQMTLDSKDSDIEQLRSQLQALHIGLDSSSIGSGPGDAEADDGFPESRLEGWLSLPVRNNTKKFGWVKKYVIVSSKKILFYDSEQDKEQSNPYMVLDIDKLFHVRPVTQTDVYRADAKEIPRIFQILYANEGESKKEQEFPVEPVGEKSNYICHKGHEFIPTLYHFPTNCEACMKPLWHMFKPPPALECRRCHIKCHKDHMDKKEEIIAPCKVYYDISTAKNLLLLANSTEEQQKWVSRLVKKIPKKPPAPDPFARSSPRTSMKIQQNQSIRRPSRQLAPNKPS
Sequence of MAP kinase-activated protein kinase 3 (Homo sapiens) (Q16644 whole entry, looked up): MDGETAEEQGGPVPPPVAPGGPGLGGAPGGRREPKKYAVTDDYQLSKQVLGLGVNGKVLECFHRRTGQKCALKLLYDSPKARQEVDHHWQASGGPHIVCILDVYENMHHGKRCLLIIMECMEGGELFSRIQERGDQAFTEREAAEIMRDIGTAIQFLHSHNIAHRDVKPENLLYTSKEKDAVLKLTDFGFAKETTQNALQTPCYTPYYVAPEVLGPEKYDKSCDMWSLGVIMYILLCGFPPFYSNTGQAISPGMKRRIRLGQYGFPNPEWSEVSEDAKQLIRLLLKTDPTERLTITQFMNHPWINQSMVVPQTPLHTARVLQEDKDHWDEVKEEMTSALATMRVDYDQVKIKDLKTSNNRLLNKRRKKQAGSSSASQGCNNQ

## NCC1CN(c2ncnc3[nH]c4cnccc4c23)CCO1 (stereo not drawn)
[1]
  inhibition: 4%
[2]
  inhibition: 10%
[3]
  inhibition: 10%
[4]
  inhibition: 63.5%

## NCCc1ccc(-c2ncnc3[nH]cnc23)cc1
[5]
  inhibition: 11%

## NC1(Cc2ccc(Cl)cc2)CCN(c2ncnc3[nH]ccc23)CC1
[6]
  inhibition: 3%

## C[C@H](CN(C)C)Oc1nc(Nc2cc3cccc(Cl)c3cn2)cnc1C#N
[7]
  inhibition: 6%
[8]
  inhibition: 0%

## COC(=O)c1cnc(Nc2cnc(C#N)cn2)cc1NCC1CCNCC1
[9]
  inhibition: 21%

## c1nc(N2CCOCC2)c2nc[nH]c2n1
[10]
  inhibition: 95.5%

## CNCc1ccc(-c2ncnc3[nH]cnc23)cc1
[11]
  inhibition: 88.5%
[12]
  inhibition: 42.5%

## Clc1ccc(C2(c3ccc(-c4ncnc5[nH]cnc45)cc3)CCNCC2)cc1
[13]
  inhibition: 80%

## NC1CCN(c2ncnc3[nH]ccc23)CC1
[14]
  inhibition: 25.5%

## NCC1CCN(c2ncnc3[nH]ccc23)CC1
[15]
  inhibition: 81.5%
[16]
  inhibition: 23.5%

## c1cnc2[nH]ccc2c1
[17]
  inhibition: 89.5%
[18]
  inhibition: 29%
